Measurements reported in PubChem BioAssay AID179 (DTP/NCI, 2004).
Active and inactive are the calls of the source.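 How the source made its calls: active means compounds giving half or more protection of infected cells from virus-caused growth loss, again on retest; inactive means the rest.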

System: CEM cells HIV-1 protection, formazan growth assay
Assay: NCI AIDS Antiviral Assay
Settings: for IC50: measured here: growth of uninfected CEM cells
Method in brief: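 Steps: treat uninfected and HIV-1-infected human CEM cells at five drug levels; quantify growth by soluble formazan; retest any compound reaching 50% protection; classify actives from the retest.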

Compound | EC50 [µM] | IC50 [µM] | outcome
Cc1cccc(C)c1NC(=O)C(=O)C1C(=O)N(c2ccccc2)N=C1N (centres undefined) | > 708 | > 708 | –
COc1ccc2c3c1C(=O)CCCC3CO2 (centres undefined) | – | – | inactive
N#CC(C#N)=C1CCN2CCCc3cccc1c32 | > 200 | 129 | –
O=c1cc2c(Cl)cccc2n[nH]1 | > 195 | > 195 | –
CC(C)C(Nc1c2ccccc2nc2ccccc12)C(=O)O (centres undefined) | – | – | inactive
N#C/C(=C\c1cccc(Br)c1)c1nc2ccccc2c(=O)[nH]1 | – | – | inactive
CC(C)(C)OC(=O)CC(NC(=O)OC(C)(C)C)C(=O)Oc1ccc([N+](=O)[O-])cc1 (centres undefined) | > 200 | > 200 | –
[N-]=[N+]=Nc1ccccc1-[n+]1noc([O-])c1Br | > 457 | > 457 | –
COC(=O)CCc1ccc2c(c1)CC1(C2)Cc2ccc3c(c2C1)CCC3 (centres undefined) | > 200 | > 200 | –
O=C(Nc1ccc2oc(=O)c(C(=O)O)cc2c1)Oc1ccccc1 | > 282 | > 282 | –
Cc1cc(O)c(C=O)c2c1C(=O)Oc1c(COCO/C=C/C(=O)O)c(O)c(C(=O)O)c(C)c1O2 | 52.5 | 61.7 | –
Cc1nc2ccccc2nc1CC(=O)C(=O)Nc1ccc(Cl)cc1Cl | 302 | 347 | –
O=C(Cn1c(C(=O)c2ccccc2)nc2ccccc21)c1ccccc1 | > 200 | 7.41 | –
COc1ccccc1NC(=S)/N=C/c1c(O)[nH]c(=O)[nH]c1=O | > 200 | > 200 | –
COc1ccc(/C=C2/C(=O)NC3SC=C(c4cccc([N+](=O)[O-])c4)N23)cc1 (centres undefined) | > 200 | 83.2 | –
CN1C(=O)c2ccccc2C1(N)c1ccccc1 (centres undefined) | 661 | 871 | –
CC1C(=O)CC2C3(C)CCC2(C(C)C(=O)O)C(=O)C13 (centres undefined) | > 275 | 224 | –
Cc1ccc(NC(=O)c2c(NC(=O)CN3CCOCC3)c(C#N)c3n2CCC3)cc1 | > 200 | > 200 | –
Cn1c(N)c2c(=O)n(C)c3c(c2c(C#N)c1=O)CCSc1ccccc1-3 | > 9.33 | > 9.33 | –
CC(Nc1ccc(S(=O)(=O)N=C(N)N)cc1)c1c2ccccc2nc2ccccc12 (centres undefined) | – | – | inactive
NC(=O)Nc1cc(O)ccc1N=Nc1ccc(S(=O)(=O)Nc2ccccn2)cc1 | > 87.1 | > 87.1 | –
CC12C=C3CC(OC(=O)c4ccccc4)CCC3(O1)c1ccccc12 (centres undefined) | > 57.5 | 32.4 | –
Cc1[nH]nc2c1NC(=O)OC(C)(C)C2 | > 479 | > 479 | –

Compound | EC50 [µM] | IC50 [µM] | outcome
N#CCC(=O)N/N=C(\C(=O)Nc1ccc(Cl)c(Cl)c1)C1CN(c2ccccc2)N=C1N (centres undefined) | > 79.4 | > 79.4 | –
Cc1coc2c1C1OC(=O)C3(C/C=C\C(C)C2)OC13 (centres undefined) | > 72.4 | > 72.4 | –
C=CCC[CH2][Sn]([c]1ccccc1)([c]1ccccc1)[c]1ccccc1 | – | – | inactive
CN1C(=O)C(/C=N/NC(=O)c2cccnc2)C(N)N(C)C1=O (centres undefined) | > 200 | > 200 | –
NC1=C(O)c2cccc3cccc(c23)C1=O | – | – | inactive
O=C(NNC(=O)c1cc2ccccc2[nH]1)c1cc2ccccc2[nH]1 | > 200 | > 200 | –
COc1ccc(N2C(=O)/C(=C/c3ccc(N(CCC#N)CCC#N)cc3)N=C2c2ccccc2)c(OC)c1 | > 200 | 50.1 | –
COc1ccc(N2C(=O)C3c4[nH]c5ccc(OC)cc5c4C4CCC(C(C)C)CC4C3C2=O)cc1 (centres undefined) | > 50.1 | > 50.1 | –
COc1cc(-c2oc3c(OC)c(OC)c(OC)c(OC)c3c(=O)c2OC)cc(OC)c1OC | > 200 | 17.8 | –
O=CC1CCCc2ccccc21 (centres undefined) | > 44.7 | > 44.7 | –
CN(C)CCSC1=Nc2ccc(Cl)cc2C(c2ccccc2Cl)N(C)C1 (centres undefined) | > 200 | 20 | –
O=C(c1ccc(OC(=O)c2ccccc2O)cc1)c1ccc(OC(=O)c2ccccc2O)cc1 | – | – | inactive
CSc1nc(-c2ccc(C)cc2)c(C#N)c(=O)[nH]1 | – | – | inactive
CCOP(=O)(OCC)/C(C#N)=C/c1ncc[nH]1 | > 200 | > 200 | –
COC(C(O)c1ccc2c(c1)OCO2)P(=O)(c1ccccc1)c1ccccc1 (centres undefined) | – | – | inactive
CC1=CC(=C(c2ccc(N)cc2)c2ccc(N)cc2)C=CC1=N | – | – | inactive
Cc1cccnc1/N=C/c1c(O)n(C)c(=O)[nH]c1=O | > 200 | > 200 | –
CCN(CC)CC(C(=O)Nc1c(C)cccc1C)/C(C)=N/NC(N)=S (centres undefined) | > 37.2 | > 37.2 | –
COc1ccc2c3c1O[C@]1(C)C34CCN(C)C(C2)C42C=C[C@@]1(OC)c1c(O)ccc(O)c12 | > 60.3 | > 60.3 | –
COc1cccc2c(NNc3ccccc3)c3ccc([N+](=O)[O-])cc3nc12 | > 22.4 | 16.2 | –
CCOC(=O)Cn1sc2ncc([N+](=O)[O-])cc2c1=O | > 13.5 | 8.91 | –
Cc1nn(C(=O)CC(=O)Nc2ccc(Cl)cc2)c(C)c1N=Nc1ccccc1F | – | – | inactive
C=CCCC(=O)CC(O)(C(F)(F)F)C(F)(F)F | – | – | inactive

Compound | EC50 [µM] | IC50 [µM] | outcome
Cc1cccc(NC(=O)/C=C/c2ccc(N(CCC#N)CCC#N)cc2C)c1 | > 676 | > 676 | –
COC1=C2C=[N+](C)C3C(=C2C=CC1OC)Cc1cc2c(cc13)OCO2 (centres undefined) | > 631 | 3.63 | –
c1ccc(C2OC3(CCC[C@H]4C[C@H]43)O[C@H]2c2ccccc2)cc1 (some centres undefined) | – | – | inactive
C[C@@]12CCC[C@H]1[C@@H]1CC=C3C[C@@H](S)CC[C@]3(C)[C@H]1CC2 | > 200 | 66.1 | –
CC1=C(C)CS(=O)N(c2ccccc2)C1 (centres undefined) | > 200 | 89.1 | –
CC(=O)Nc1ccc(C(=O)NN2C(=O)C(Cl)C2c2cc(Br)cc(Br)c2O)cc1 (centres undefined) | – | – | inactive
CCS1=C2C(=O)CC(C)(C)CC2=Nc2ccccc21 (centres undefined) | > 200 | > 200 | –
COc1cc(/C=C2\SC(=S)N(/C=C/c3nc4ccccc4[nH]c3=O)C2=O)cc(OC)c1OC | > 200 | 18.2 | –
[N-]=[N+]=C1CNC(=O)NC1=O | > 200 | 30.2 | –
C=C1C=CC2(Br)OC3CC(C)(Cl)C(Br)CC13C2(C)C (centres undefined) | – | – | inactive
O=C1CCC23/C=C/C(=O)NCCCCNCCCNC(=O)/C=C/c4ccc(c2c4)OC3C1 (centres undefined) | > 148 | > 148 | –
O=S(c1ccc(Cl)cc1)c1ccccc1C1=NCCN1 (centres undefined) | > 200 | > 200 | –
NC(=O)c1nnc2c(F)cccc2c1N | > 200 | 182 | –
C=C1C(=O)SC(=NCc2ccccc2)N1C | > 204 | 132 | –
CSc1ccc(/C=N\C(=N)SN)cc1C | > 200 | 18.6 | –
COc1cccc([B-]23OCC[N+]2(CNC(=O)C2=C(O)C4(O)C(=O)C5=C(O)c6c(O)cccc6C(C)(O)C5CC4C(N(C)C)C2=O)CCO3)c1 (centres undefined) | > 38 | > 38 | –
CCOC(=O)c1cc(C2CCN(c3ccccc3)C2=O)c(/C(O)=C/C(C)=O)[nH]1 (centres undefined) | > 200 | 5.01 | –
CN1C(=O)C(Cl)(C#N)C(c2ccccc2)N(C)C1c1ccccc1 (centres undefined) | > 200 | 8.71 | –
COc1cc(CC2c3cc(OC)c(OC)cc3CCN2C)c(C(=O)O)cc1OC (centres undefined) | – | – | inactive
CC1=NN(C(=O)CC(=O)Nc2ccccc2)C(=O)C1N=Nc1ccc(C(=O)O)cc1 (centres undefined) | > 200 | 58.9 | –
O=[N+]([O-])c1cccc(C2ON2C2CCCCC2)c1 (centres undefined) | > 89.1 | 5.01 | –
CCn1c(SCC(=O)NNC(=S)Nc2ccc([N+](=O)[O-])cc2)nc2ccccc2c1=O | > 200 | 83.2 | –
O=c1cc(O)c2c(ccc3ccccc32)[nH]1 | > 200 | > 200 | –

Compound | EC50 [µM] | IC50 [µM] | outcome
Cc1ccc(S(=O)(=O)N/N=C/CN2C(=O)c3ccccc3C2=O)cc1 | 182 | 191 | –
O=S1CCS(=O)CCS(=O)CC1 (centres undefined) | > 16.6 | > 16.6 | –
CN1CCN(c2nc3c(c(=O)n(C)c(=O)n3C)n2C)CC1 | > 759 | > 759 | –
Cc1ccc2c(n1)C(N1CCCC1)=CC(=O)C2=O | – | – | inactive
O=[N+]([O-])c1ccc2c(c1)n1c(N3CCCC3)[n+]3ccccc3c1c1c3cccc[n+]3c(N3CCCC3)n21 | 72.4 | 77.6 | –
c1ccc(C(c2ccccc2)[P+](c2ccccc2)(c2ccccc2)c2ccccc2)cc1 | > 20 | 0.372 | –
CC(=O)NC(C(=O)O)C(C)(C)SN=O (centres undefined) | > 1120 | 240 | –
CN(C)/C=N\c1nn[nH]n1 | > 200 | 3.63 | –
CC[C@@H](CCCC[C@@H]1CC[C@H]2CC(=O)C[C@@H]12)OC | > 200 | 186 | –
COc1cccc2c1CCc1ccccc1CC2=O | > 53.7 | > 53.7 | –
CC(=O)N(NC(=O)P(=O)(OC(C)C)OC(C)C)c1ccc([N+](=O)[O-])cc1 | > 129 | > 129 | –
COc1ccc(N(CC(=O)O)S(=O)(=O)c2ccccc2)cc1 | – | – | inactive
O=C(NC(Cc1cnc[nH]1)C(=O)N1CCCC1)C1CCCC1 (centres undefined) | > 200 | – | –
CC1=NNC(=O)C1N=Nc1c(C)n(C)n(-c2ccccc2)c1=O (centres undefined) | > 200 | 16.6 | –
CC(=O)NC1C(=O)N(Cc2ccccc2)[C@@H]1COC(C)(C)C (some centres undefined) | > 813 | > 813 | –
COc1ccc(NC(=O)C/C(C)=N\N=C(N)N)c([N+](=O)[O-])c1 | > 115 | > 115 | –
CCC(C#N)N(Cc1cccc(CN(C(C)=O)C(C#N)CC)c1)C(C)=O (centres undefined) | > 200 | 191 | –
Cc1ccc2n(c1)cc(-c1ccc(/C=N/NC(=N)N/N=C/c3ccc(-c4cn5cc(C)ccc5[n+]4C)cc3)cc1)[n+]2C | 15.5 | 49 | –
O=P1(Cc2ccccc2)c2ccccc2-c2ccccc21 | > 200 | 3.63 | –
Cn1cc(S(=O)(=O)NC(=O)Nc2ccc(Cl)cc2)c2ccccc21 | > 200 | 27.5 | –
CCN(CC)C(=S)SS(=O)(=O)c1ccccc1[N+](=O)[O-] | > 200 | 7.24 | –
COc1ccc2c(c1)O[C@H]1c3ccc(O)cc3OC[C@@H]21 | – | – | inactive
COCOCC1CCCN1CN1CCC[C@H]1COCOC (some centres undefined) | > 200 | 107 | –
